Test results published in ChEMBL document CHEMBL5678803, “Selective blockade of TRPA1 channel attenuates pathological pain without altering noxious cold sensation or body temperature regulation” (Pain, 2011).
The source made the active and inactive calls. No cut-off for these calls is given here.

Assays:
[1] = Drug concentration in rat at 20.7 mg/kg, po measured after 60 mins; type: ADME, organism-based; settings: in vivo, read-out: Drug uptake
[2] = molecular target: T1, Transient receptor potential cation channel subfamily V member 4 (Homo sapiens, UniProt Q9HBA0); assay: Antagonist activity at human TRPV4 expressed in HEK293F cells assessed as inhibition of mOsmo-induced increase in intracellular Ca2+ level by FLIPR-based Ca2+ assay; type: cell-based
[3] = molecular target: T2, Transient receptor potential cation channel subfamily V member 2 (Rattus norvegicus, UniProt Q9WUD2); assay: Antagonist activity at rat TRPV2 expressed in HEK293F cells assessed as inhibition of 2APB-induced increase in intracellular Ca2+ level by FLIPR-based Ca2+ assay; type: cell-based
T2 sequence (Q9WUD2 whole entry): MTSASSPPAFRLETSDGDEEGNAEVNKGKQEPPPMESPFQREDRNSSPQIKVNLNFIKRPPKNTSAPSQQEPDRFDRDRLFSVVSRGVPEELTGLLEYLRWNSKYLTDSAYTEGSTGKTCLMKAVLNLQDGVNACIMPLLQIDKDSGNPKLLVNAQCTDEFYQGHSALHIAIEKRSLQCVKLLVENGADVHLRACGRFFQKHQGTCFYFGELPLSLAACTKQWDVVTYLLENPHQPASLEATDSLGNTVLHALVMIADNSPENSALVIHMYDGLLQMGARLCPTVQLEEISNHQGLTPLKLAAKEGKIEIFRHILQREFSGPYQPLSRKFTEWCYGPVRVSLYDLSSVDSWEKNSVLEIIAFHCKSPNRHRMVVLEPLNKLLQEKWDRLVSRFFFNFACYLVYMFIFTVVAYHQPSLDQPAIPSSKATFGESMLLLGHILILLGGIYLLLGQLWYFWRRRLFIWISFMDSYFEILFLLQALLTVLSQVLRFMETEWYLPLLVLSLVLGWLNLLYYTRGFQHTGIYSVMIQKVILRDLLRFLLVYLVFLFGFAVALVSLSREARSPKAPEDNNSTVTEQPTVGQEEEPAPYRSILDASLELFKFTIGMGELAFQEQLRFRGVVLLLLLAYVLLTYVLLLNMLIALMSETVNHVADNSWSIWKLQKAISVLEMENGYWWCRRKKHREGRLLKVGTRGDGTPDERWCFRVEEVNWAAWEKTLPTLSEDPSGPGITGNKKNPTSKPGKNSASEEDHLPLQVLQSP

[4] = Toxicity in Sprague-Dawley rat assessed as effect on body temperature at 20.7 to 62.1 mg/kg, po measured after 480 mins by radiotelemetric analysis; type: organism-based; settings: in vivo, 8 h, dose 20.7-62.1 mg/kg
[5] = Half-life in rat at 2 mg/kg, po; type: ADME, organism-based; settings: in vivo
[6] = Chemical reactivity of compound to 13C-labelled La antigen by ALARM NMR spectroscopic analysis; type: physicochemical
[7] = Drug concentration in rat at 6.2 mg/kg, po measured after 60 mins; type: ADME, organism-based; settings: in vivo, read-out: Drug uptake
[8] = Toxicity in CD1 mouse assessed as effect on total forepaw shivering response at 5 degreeC at 62.1 mg/kg, po measured after 4 mins by noxious cold plate assay; type: organism-based; settings: in vivo
[9] = Drug concentration in rat at 62.1 mg/kg, po measured after 60 mins; type: ADME, organism-based; settings: in vivo, read-out: Drug uptake
[10] = Toxicity in Sprague-Dawley rat assessed as effect on mean arterial pressure; settings: in vivo
[11] = Stability of compound in aqueous tetrahydrofuran buffer at pH 7.5 assessed as compound remaining incubated for 16 hrs in presence of glutathione by nuclear magnetic resonance spectroscopy based LC-MS analysis; type: physicochemical; settings: aqueous tetrahydrofuran buffer with glutathione, read-out: Stability
[12] = Tmax in rat at 2 mg/kg, po; type: ADME, organism-based; settings: in vivo
[13] = Chemical reactivity of compound to La antigen incubated overnight by LC-MS analysis; type: physicochemical
[14] = Effect on locomotory activity in Sprague-Dawley rat model of mustard oil-induced nocifensive response at 6.2 to 62.1 mg/kg, po administered for 1 hrs; type: toxicity, organism-based; settings: in vivo, dose 6.2-62.1 mg/kg
Rattus norvegicus [15] = assay: Analgesic activity in AITC-induced nocifensive response Sprague-Dawley rat model assessed as prevention of mustard oil-induced flinching behavior administered orally for 1 hrs; type: functional, organism-based; settings: dose 6.2-62.1 mg/kg, route po
Rattus norvegicus [16] = assay: Antiallodynic activity in acetone-induced CCI Sprague-Dawley rat model assessed as attenuation of acetone induced cold allodynia at 62.1 mg/kg, po measured after 1 hrs relative to control; type: functional
[17] = molecular target: Melatonin receptor type 1A (Homo sapiens) (UniProt P48039); assay: Inhibition of MT1 receptor (unknown origin) at 10 micromol/L by radioligand binding assay; settings: dose 10.0 µmol/L
[18] = Aqueous solubility of compound; type: physicochemical; settings: buffer
Rattus norvegicus [19] = assay: Analgesic activity in MIA-induced osteoarthritic pain Sprague-Dawley rat model assessed as reversal of MIA-induced hind limb grip force deficit preadministered with MIA for 3 weeks followed by oral administration of compound for 1 hrs; type: functional; settings: dose 6.2-62.1 mg/kg
[20] = molecular target: T3, Transient receptor potential cation channel subfamily V member 2 (Rattus norvegicus) (UniProt Q9WUD2); assay: Activation of rat TRPV2 expressed in HEK293F cells upto 100 micromol/L; type: cell-based; settings: dose <= 100.0 µmol/L
T3 sequence (whole entry): T2 sequence (Q9WUD2 whole entry)

[21] = molecular target: T1, Transient receptor potential cation channel subfamily V member 4; assay: Antagonist activity at human TRPV4 expressed in HEK293F cells assessed as inhibition of mOsmo-induced TRPV4 channel activation by FLIPR-based Ca2+ assay relative to control; type: cell-based; settings: concentration not given here
[22] = molecular target: Sodium-dependent dopamine transporter (Homo sapiens) (UniProt Q01959); assay: Inhibition of dopamine transporter (unknown origin) at 10 micromol/L by radioligand binding assay; settings: dose 10.0 µmol/L
[23] = molecular target: Transient receptor potential cation channel subfamily A member 1 (Homo sapiens, UniProt O75762); assay: Antagonist activity at recombinant human TRPA1 expressed in HEK293F cells assessed as reduction in AITC-induced increase in intracellular Ca2+ level by FLIPR-based Ca2+ assay; type: cell-based; settings: filed as antagonist
Rattus norvegicus [24] = assay: Antiallodynic activity in spinal nerve ligation-induced neuropathic pain Sprague-Dawley rat model assessed as attenuation of mechanical allodynia at 6.2 to 62.1 mg/kg, po administered with compound for 1 hrs and measured 10 to 14 days after surgery; type: functional, organism-based; settings: dose 6.2-62.1 mg/kg, time 241-337 hrs
[25] = molecular target: Transient receptor potential cation channel subfamily M member 8 (Homo sapiens, UniProt Q7Z2W7); assay: Antagonist activity at human TRPM8 expressed in HEK293F cells assessed as inhibition of menthol-induced TRPM8 channel activation by FLIPR-based Ca2+ assay relative to control; type: cell-based; settings: concentration not given here
[26] = Toxicity in CD1 mouse assessed as effect on first jump latency at 0 degreeC at 62.1 mg/kg, po measured after 4 mins by noxious cold plate assay; type: organism-based; settings: in vivo
[27] = molecular target: T3, Transient receptor potential cation channel subfamily V member 2 (Rattus norvegicus); assay: Antagonist activity at rat TRPV2 expressed in HEK293F cells assessed as inhibition of 2APB-induced TRPV2 channel activation by FLIPR-based Ca2+ assay relative to control; type: cell-based; settings: concentration not given here
[28] = molecular target: Transient receptor potential cation channel subfamily A member 1 (Rattus norvegicus) (UniProt Q6RI86); assay: Antagonist activity at endogenous TRPA1 in rat DRG neurons assessed as blockade of bradykinin-induced CGRP release at 5 micromol/L; type: cell-based; settings: DRG neuron, filed as antagonist, dose 5.0 µmol/L
Sequence of Transient receptor potential cation channel subfamily A member 1 (Rattus norvegicus) (Q6RI86 whole entry): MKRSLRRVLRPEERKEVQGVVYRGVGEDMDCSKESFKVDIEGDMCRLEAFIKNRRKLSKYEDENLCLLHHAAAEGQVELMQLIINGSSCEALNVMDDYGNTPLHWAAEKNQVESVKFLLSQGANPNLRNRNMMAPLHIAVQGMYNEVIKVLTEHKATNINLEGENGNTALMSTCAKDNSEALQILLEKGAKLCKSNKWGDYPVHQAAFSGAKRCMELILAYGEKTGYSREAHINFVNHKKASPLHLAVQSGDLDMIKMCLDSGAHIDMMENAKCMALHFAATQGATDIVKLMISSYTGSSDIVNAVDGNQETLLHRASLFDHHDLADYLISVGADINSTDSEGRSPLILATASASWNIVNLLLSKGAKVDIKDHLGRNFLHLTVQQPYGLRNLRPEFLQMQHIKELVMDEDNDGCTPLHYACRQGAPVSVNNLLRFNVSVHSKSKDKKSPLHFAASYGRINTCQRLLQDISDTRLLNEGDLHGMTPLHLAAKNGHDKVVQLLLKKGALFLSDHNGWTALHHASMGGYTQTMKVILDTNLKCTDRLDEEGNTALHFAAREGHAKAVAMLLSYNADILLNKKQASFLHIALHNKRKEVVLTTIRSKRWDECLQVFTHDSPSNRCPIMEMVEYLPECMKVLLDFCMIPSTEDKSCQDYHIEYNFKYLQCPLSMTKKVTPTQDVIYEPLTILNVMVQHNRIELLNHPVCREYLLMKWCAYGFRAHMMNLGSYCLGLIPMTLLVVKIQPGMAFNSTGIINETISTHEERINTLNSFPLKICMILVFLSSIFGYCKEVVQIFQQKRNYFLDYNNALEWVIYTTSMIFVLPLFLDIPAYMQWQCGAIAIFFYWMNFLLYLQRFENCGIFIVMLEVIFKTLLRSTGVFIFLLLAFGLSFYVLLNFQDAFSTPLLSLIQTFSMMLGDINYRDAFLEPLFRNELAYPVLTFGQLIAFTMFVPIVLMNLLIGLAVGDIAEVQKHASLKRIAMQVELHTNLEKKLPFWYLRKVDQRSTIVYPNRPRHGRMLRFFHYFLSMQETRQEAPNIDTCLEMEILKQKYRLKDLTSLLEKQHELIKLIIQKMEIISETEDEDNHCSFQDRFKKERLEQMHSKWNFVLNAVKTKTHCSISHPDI

T1 sequence (Q9HBA0 whole entry): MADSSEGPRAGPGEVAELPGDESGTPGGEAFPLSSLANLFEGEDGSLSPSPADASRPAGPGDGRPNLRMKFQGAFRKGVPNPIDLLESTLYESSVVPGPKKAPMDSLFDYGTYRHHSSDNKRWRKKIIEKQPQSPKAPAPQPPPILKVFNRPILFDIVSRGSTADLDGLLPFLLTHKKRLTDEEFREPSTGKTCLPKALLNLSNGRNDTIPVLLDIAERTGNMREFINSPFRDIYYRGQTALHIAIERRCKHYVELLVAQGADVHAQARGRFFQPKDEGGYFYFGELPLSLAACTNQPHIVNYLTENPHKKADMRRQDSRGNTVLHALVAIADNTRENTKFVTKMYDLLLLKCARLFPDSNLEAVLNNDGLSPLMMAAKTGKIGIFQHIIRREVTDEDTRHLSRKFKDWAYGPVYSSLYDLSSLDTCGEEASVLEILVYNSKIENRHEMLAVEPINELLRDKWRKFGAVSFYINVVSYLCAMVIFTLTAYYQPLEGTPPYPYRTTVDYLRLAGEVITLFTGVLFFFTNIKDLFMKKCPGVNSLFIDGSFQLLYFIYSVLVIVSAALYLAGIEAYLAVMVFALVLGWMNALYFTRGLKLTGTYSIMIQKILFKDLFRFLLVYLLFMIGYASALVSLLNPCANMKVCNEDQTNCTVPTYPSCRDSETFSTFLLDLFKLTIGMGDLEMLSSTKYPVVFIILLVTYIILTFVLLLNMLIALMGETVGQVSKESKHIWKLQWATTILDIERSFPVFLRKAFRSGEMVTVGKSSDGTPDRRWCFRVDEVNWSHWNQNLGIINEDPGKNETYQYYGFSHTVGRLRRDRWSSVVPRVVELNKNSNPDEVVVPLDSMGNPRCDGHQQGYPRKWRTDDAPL
Sequence of Transient receptor potential cation channel subfamily A member 1 (O75762 whole entry): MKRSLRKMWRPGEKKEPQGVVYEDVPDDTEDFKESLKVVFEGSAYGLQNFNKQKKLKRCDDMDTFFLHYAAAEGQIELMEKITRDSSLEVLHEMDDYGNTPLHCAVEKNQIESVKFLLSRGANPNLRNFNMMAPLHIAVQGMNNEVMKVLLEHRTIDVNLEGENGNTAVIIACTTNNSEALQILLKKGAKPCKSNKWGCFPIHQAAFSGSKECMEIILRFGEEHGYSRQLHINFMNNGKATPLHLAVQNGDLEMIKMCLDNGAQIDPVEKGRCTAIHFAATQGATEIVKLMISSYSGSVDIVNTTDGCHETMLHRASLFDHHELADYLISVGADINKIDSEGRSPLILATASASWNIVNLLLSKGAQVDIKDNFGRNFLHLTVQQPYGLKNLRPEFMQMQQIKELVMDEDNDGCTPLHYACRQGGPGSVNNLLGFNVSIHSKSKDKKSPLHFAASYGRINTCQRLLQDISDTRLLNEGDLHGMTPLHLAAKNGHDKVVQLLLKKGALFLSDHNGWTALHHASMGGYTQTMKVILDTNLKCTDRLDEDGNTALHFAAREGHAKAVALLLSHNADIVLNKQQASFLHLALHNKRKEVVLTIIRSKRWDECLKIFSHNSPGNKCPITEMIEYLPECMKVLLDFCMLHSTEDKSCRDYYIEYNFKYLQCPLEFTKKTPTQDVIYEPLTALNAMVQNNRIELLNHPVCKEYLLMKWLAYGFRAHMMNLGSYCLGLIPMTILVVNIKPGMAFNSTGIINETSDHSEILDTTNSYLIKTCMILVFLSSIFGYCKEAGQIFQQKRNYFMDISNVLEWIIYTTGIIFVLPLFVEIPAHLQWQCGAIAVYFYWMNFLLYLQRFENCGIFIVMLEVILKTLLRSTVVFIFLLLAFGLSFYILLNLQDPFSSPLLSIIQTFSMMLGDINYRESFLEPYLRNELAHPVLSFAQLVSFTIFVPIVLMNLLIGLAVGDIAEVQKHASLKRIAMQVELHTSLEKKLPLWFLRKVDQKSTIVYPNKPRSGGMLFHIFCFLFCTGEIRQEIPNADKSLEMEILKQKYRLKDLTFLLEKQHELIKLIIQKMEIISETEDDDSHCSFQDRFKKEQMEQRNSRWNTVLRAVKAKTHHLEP
Sequence of Sodium-dependent dopamine transporter (Homo sapiens) (Q01959 whole entry): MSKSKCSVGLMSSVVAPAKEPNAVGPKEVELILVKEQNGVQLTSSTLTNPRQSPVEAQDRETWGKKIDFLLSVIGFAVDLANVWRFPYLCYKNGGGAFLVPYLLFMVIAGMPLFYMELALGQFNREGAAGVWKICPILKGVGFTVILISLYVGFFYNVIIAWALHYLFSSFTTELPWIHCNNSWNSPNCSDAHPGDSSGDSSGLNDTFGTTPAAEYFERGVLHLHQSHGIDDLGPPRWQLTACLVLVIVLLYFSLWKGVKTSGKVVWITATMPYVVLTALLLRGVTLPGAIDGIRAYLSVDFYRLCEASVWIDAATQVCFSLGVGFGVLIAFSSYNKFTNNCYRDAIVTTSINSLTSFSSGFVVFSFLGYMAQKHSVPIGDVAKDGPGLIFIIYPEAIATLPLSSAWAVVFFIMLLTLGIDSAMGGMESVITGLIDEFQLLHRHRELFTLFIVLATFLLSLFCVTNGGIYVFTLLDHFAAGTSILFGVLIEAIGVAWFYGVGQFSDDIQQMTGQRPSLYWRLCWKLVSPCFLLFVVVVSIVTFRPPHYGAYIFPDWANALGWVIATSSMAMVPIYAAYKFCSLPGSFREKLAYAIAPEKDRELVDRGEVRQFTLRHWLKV
Sequence of Melatonin receptor type 1A (Homo sapiens) (P48039 whole entry): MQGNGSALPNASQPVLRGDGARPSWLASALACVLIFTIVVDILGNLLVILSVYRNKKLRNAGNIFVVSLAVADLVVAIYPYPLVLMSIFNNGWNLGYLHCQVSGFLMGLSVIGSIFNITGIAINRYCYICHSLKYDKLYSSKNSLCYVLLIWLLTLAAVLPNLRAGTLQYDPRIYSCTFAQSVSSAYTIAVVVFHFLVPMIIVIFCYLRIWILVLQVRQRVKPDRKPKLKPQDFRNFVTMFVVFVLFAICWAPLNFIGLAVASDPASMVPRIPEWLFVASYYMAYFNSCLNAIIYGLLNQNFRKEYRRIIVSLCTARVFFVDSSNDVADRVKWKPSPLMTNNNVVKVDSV

`CCC(=N\O)/C(C)=C/c1ccc(F)cc1` [A-079] showed a concentration at 1 h [1] of 6.22 µM, an IC50 [2] greater than 100 µM and an IC50 [3] greater than 100 µM. For the same compound, the Activity [4] was “Non-Toxic”, the half-life [5] was 48.6 min and the Stability [6] was “Stable”. For the same compound, the concentration at 1 h [7] was 1.54 µM, the Activity [8] was “Non-Toxic” and the concentration at 1 h [9] was 11.8 µM. For the same compound, the Activity [10] was “Non-Toxic”, the remaining at 16 h [11] was greater than 95% and the Tmax [12] was 30 min. For the same compound, the Stability [13] was “Stable”, the Activity [14] was “Non-Toxic” and the Activity (Rattus norvegicus [15]) was “Dose-Dependent Effect”. It also gave an Activity (Rattus norvegicus [16]) of 46.4%, an inhibition [17] of 31% and a solubility [18] greater than 300 µM. For the same compound, the Activity (Rattus norvegicus [19]) was “Dose-Dependent Effect”, the ED50 (Rattus norvegicus [19]) was 23.2 mg/kg and the Activity [20] was “inactive”. The inhibition [21] was less than 20%, the inhibition [22] was 43% and the Activity [23] was “Dose-Dependent Effect”. For the same compound, the Activity (Rattus norvegicus [24]) was “inactive”, the inhibition [25] was less than 20% and the Activity [26] was “Non-Toxic”. For the same compound, the inhibition [27] was less than 20% and the Activity [28] was “Active”.
